pIC50: −log10 of the molar value. Read-outs that look alike come from different tables or passages of the source.
What was measured:
[1] = tested on: HepG2 cells; assay: HepG2 cytotoxicity assay; conditions: for Pb ODA (this manuscript) HepG2 cytoxicity: HepG2 cytotoxicity listed with the Pb ODA data set (this manuscript); for pIC50: read-out: HepG2 cytotoxicity assay IC50, dose response confirmation
Outline: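 Cells are plated at 2,500 per well on compound-treated plates in MEM containing 10% fetal bovine serum and 1% NEAA, then incubated 48 h at 37°C.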

[2] = tested on: 3D7-strain P. falciparum asexual parasites; assay: P. falciparum asexual growth inhibition assay (Pf GIA); format: cell-based, Plasmodium falciparum; conditions: dose response confirmation; read-out: Pf asexual growth inhibition assays IC50
Outline: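 3D7 parasites at 0.25% parasitemia, 2% hematocrit were exposed to compounds in dose response for 72 h at 37°C under 5% CO2, 5% O2. Viability read as parasite LDH activity (nitro blue tetrazolium, A650) after freeze-thaw; inhibition scaled to chloroquine (50 μM) and DMSO controls, mean of three biological replicates.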

[3] = tested on: P. berghei ookinete development; conditions: for % inhibition, Replicate A / % inhibition, Replicate B: primary screen at 1 μM
[4] = read-out: Pb ODA (this manuscript) IC50, P. berghei ookinete development assay, this manuscript
[5] = read-out: Pb Ookinete development assay IC50, dose response confirmation
[6] = HepG2 values of the three screens unified
[7] = read-out: Pb ODA IC50, this manuscript
[8] = unified HepG2 value across the three screens

Row | SMILES | Pb ODA (this manuscript) HepG2 cytoxicity [1] [µM] | pIC50 [1] | pIC50 [2] | Is compound selective in assay? Pb ODA active? [3] | % inhibition, Replicate A [3] [%] | % inhibition, Replicate B [3] [%] | pIC50 [3, 4] | pIC50 [3, 5] | HepG2 cytoxicity (Pb ODA, this manuscript) [1] [µM] | Unified cytotox [1, 6] [µM] | Is compound selective in assay? Pb ODA active? ([3]; 1: YES, 0: NO) | pIC50 [3, 7] | Unified cytotox [1, 8] [µM]
1 | Cc1ccc2nc(/N=C(\N)NC(=O)NC3CCCCC3)nc(C)c2c1 [TCMDC-124557] | 57.54 | 4.24 | 5.33 | 1 (key: 1: YES; 0: NO) | 85.28 | 75.31 | 5.76 | 5.76 |  |  |  |  | 
2 | Nc1nc(N)c2c(ccc3c2ccn3Cc2cccc3ccccc23)n1 [TCMDC-137996] |  | 8.77 | 6.82 |  | 55.22 | 70.48 |  | 5.24 | 0.0017 | 0.0017 | 0 (0: NO) | 5.24 | 
3 | CCCC(CCC)n1ccc2c3c(N)nc(N)nc3ccc21.Cl [TCMDC-137949] |  | 8.77 | > 9.70 |  | 42.83 | 73.31 |  | 5.56 | 0.0017 | 0.0017 | 0 (0: NO) | 5.56 | 
4 | COc1cc(NC2=C(c3ccccc3)C(=O)c3ccccc32)ccn1 [TCMDC-135283] | 100.00 | 4.00 | 6.54 | 1 (key: 1: YES; 0: NO) | 80.47 | 74.75 | 6.13 | 6.13 |  |  |  |  | 
5 | COCCN(C)c1ccc(C(=O)Nc2ccccc2)cc1NS(=O)(=O)Cc1ccccc1.O=C(O)C(F)(F)F [TCMDC-134575] |  | 4.00 | 6.22 |  | 51.04 | 48.31 |  | 5.85 |  |  | 1 (1: YES) |  | 100.00
6 | Cc1[nH]c(C)c(-c2ccc(Oc3ccc(OC(F)(F)F)cc3)cc2)c(=O)c1Br [TCMDC-138826] | 75.86 | 4.12 | 6.56 | 0 (key: 1: YES; 0: NO) | 67.69 | 78.09 | 5.10 | 5.10 |  |  |  |  | 
7 | Cc1[nH]c(C)c(-c2ccc(-c3cc(C(F)(F)F)cc(C(F)(F)F)c3)nc2)c(=O)c1Br [TCMDC-136015] |  | 5.90 | 7.62 |  | 84.59 | 96.22 |  | 6.97 | 1.26 | 1.26 | 1 (1: YES) | 6.96 | 
8 | Cc1nc(/N=C(\N)NC(=O)NC2CCCCC2)nc2ccccc12 [TCMDC-123808] | 35.48 | 4.45 | 8.77 | 1 (key: 1: YES; 0: NO) | 57.73 | 102.93 | 5.97 | 5.97 |  |  |  |  | 
9 | CCCc1cc2c3c(N)nc(N)nc3ccc2n1C(CC)CC [TCMDC-137312] |  | 8.77 | > 9.70 |  | 47.03 | 71.34 |  | 6.33 | 0.0017 | 0.0017 | 0 (0: NO) | 6.34 | 
10 | COc1ccc2nccc([C@@H](O)CN3CCC(NC(=O)c4cc5c(F)cc(F)cc5[nH]4)CC3)c2n1 [TCMDC-134945] | 10.47 | 4.98 | 6.11 | 1 (key: 1: YES; 0: NO) | 54.14 | 76.92 | 6.38 | 6.38 |  |  |  |  | 
11 | CCn1cc(C(=O)O)c(=O)c2cc(F)c(N3CCN(S(=O)(=O)c4ccc(N)cc4)CC3)cc21 [TCMDC-125809] |  | 4.00 | 5.77 |  | 58.34 | 60.71 |  | 6.01 |  |  | 1 (1: YES) | 6.01 | 100.00
12 | CC(=O)c1ccc(NC(=O)Nc2ccc(N(C)c3ccnc(Nc4cccc(CS(C)(=O)=O)c4)n3)cc2)cc1 [TCMDC-138736] |  | 5.68 | 6.22 |  | 94.55 | 90.04 |  | 6.69 |  |  | 1 (1: YES) | 6.70 | 2.11

From publication PMC6753678, “Fueling Open Innovation for Malaria Transmission-Blocking Drugs: Hundreds of Molecules Targeting Early Parasite Mosquito Stages” (Frontiers in Microbiology, 2019)
